For assay [1], the system named is multipotent mesenchymal cells such as M2-10B4 (M2) marrow stromal cells and C3H10T1/2 embryonic fibroblasts. To be noted: Kha et al. J Bone Miner Res 19:830-840, 2004; cited from earlier work.
The subject of assay [2] is rat spines (posterolateral space, L3-L5). As to the kind of experiment: posterolateral spinal fusion in rat two-level spine model. In kind it is in vivo. To be noted: for bone growth on radiographs: 4-week and 8-week timepoints; for fusion by manual palpation of the spine segments (in words): 8 weeks; for fusion observed in rat spines (manual palpation): matrix of Oxy133, collagen and ceramic wetted with sterile water, two implants bilaterally, 8-week sacrifice, 5/5 spines. The procedure:
FIG. 6 illustrates uses of a formulation of malleable implants having 20 mg of Oxy133 on each side of the implant, in accordance with the malleable implants described herein. […] A dry composition of a matrix containing Oxy133, collagen and ceramic as described herein was prepared and wetted with sterile water to be implanted in rat spines as shown in FIG. 6. The wetted matrix was cut in half with a razor blade to yield two halves. The two implants were molded into cylindrical shapes prior to insertion and were positioned bilaterally in the posterolateral space of each test subject. Each implant contained 20 mg Oxy133. Radiographs were taken roughly 10 minutes after the procedure, 4 weeks after the procedure, and 8 weeks after the procedure. […] Fusion was tested at 8-week sacrifice by manual palpation. […] A dry composition of a matrix containing Oxy133, collagen and ceramic as described herein was prepared and wetted with sterile water to be implanted in rat spines as shown in FIG. 6. The wetted matrix was cut in half with a razor blade to yield two halves. The two implants were molded into cylindrical shapes prior to insertion and were positioned bilaterally in the posterolateral space of each test subject. Each implant contained 125 mg Oxy133. Radiographs were taken roughly 10 minutes after the procedure, 4 weeks after the procedure, and 8 weeks after the procedure. […] Fusion was tested at 8-week sacrifice by manual palpation.

The next assay relates to Mesenchymal stem cells. To be noted: general statement, no experiment described; cited from earlier work.

The text below walks through data of patent US9877836B2, “Compression resistant implants including an oxysterol and methods of use” (Warsaw Orthopedic, Inc., priority 2015, dated 2018).

The structures appear in SMILES notation. “Also recorded” adds a separate entry of the source.

Turning to `CC(C)CC[C@H](O)[C@@H](C)[C@H]1CC[C@H]2[C@@H]3CC=C4C[C@@H](O)CC[C@]4(C)[C@H]3CC[C@]12C` [22(S)-hydroxycholesterol], the osteogenic differentiation entry in assay [1] is “induce osteogenic differentiation”.

`CC(C)CCC[C@](C)(O)[C@H]1CC[C@H]2[C@@H]3CC=C4C[C@@H](O)CC[C@]4(C)[C@H]3CC[C@@]21C` [20(S)-hydroxycholesterol]: in assay [1], the osteogenic differentiation entry is given as “induce osteogenic differentiation”.

On to `CC(C)CC[C@@H](O)[C@@H](C)[C@H]1CC[C@H]2[C@@H]3CC=C4C[C@@H](O)CC[C@]4(C)[C@H]3CC[C@]12C` [22(R)-hydroxycholesterol], for which, in assay [1], the osteogenic differentiation entry was “induce osteogenic differentiation”.

With `CCCCCC[C@](C)(O)[C@H]1CC[C@H]2[C@@H]3C[C@H](O)[C@H]4C[C@@H](O)CC[C@]4(C)[C@H]3CC[C@@]21C` [Oxy133, (3S,5S,6S,8R,9S,10R,13S,14S,17S)-17-((S)-2-hydroxyoctan-2-yl)-10,13-dimethylhexadecahydro-1H-cyclopenta[α]phenanthrene-3,6-diol], the “bone growth on radiographs” value in assay [2] (implants with 20 mg Oxy133 each) and in assay [2] (implants with 125 mg Oxy133 each) was “promoted bridging bone across the transverse processes of L3-L5; also recorded: Bone growth in rat test subjects can be seen” each time. Besides, the “fusion by manual palpation of the spine segments (in words)” value in assay [2] (implants with 20 mg Oxy133 on each side) and in assay [2] (implants with 125 mg Oxy133 on each side) was “fusion was confirmed” throughout. The “fusion observed in rat spines (manual palpation)” value in assay [2] (each 20 mg Oxy133) and in assay [2] (each 125 mg Oxy133) was 100% each time. Further, the osteoblast differentiation entry in the assay with Mesenchymal stem cells is “increased osteoblast differentiation”.
